Reference: ChEMBL document CHEMBL3046501, “Synthesis, characterization & anticonvulsant activity of amide derivatives of 4-amino-1,2-naphthoquinone” (Med Chem Res, 2013)
Active and inactive are the calls of the source. The rule behind the calls is not given here.

What was measured:
Mus musculus [1] = assay: Anticonvulsant activity in Swiss albino Mus musculus (mouse) assessed as protection against maximal electroshock-induced seizures at 20 mg/kg, ip after 1 hr; assay type: functional, organism-based; parameters: dose 20 mg/kg
Mus musculus [2] = assay: Anticonvulsant activity in Swiss albino Mus musculus (mouse) assessed as protection against maximal electroshock-induced seizures at 20 mg/kg, ip after 3 hr; assay type: functional, organism-based; parameters: dose 20 mg/kg
Mus musculus [3] = assay: Anticonvulsant activity in Swiss albino Mus musculus (mouse) assessed as protection against subcutaneous pentylenetetrazol-induced seizures at 20 mg/kg, ip after 0.5 hr; assay type: functional, organism-based; parameters: dose 20 mg/kg
Mus musculus [4] = assay: Anticonvulsant activity in Swiss albino Mus musculus (mouse) assessed as protection against maximal electroshock-induced seizures at 10 mg/kg, ip after 4 hr; assay type: functional, organism-based; parameters: dose 10 mg/kg
Mus musculus [5] = assay: Anticonvulsant activity in Swiss albino Mus musculus (mouse) assessed as protection against maximal electroshock-induced seizures at 40 mg/kg, ip after 1 hr; assay type: functional, organism-based; parameters: dose 40 mg/kg
Mus musculus [6] = assay: Anticonvulsant activity in Swiss albino Mus musculus (mouse) assessed as protection against maximal electroshock-induced seizures at 40 mg/kg, ip after 3 hr; assay type: functional, organism-based; parameters: dose 40 mg/kg
Mus musculus [7] = assay: Anticonvulsant activity in Swiss albino Mus musculus (mouse) assessed as protection against subcutaneous pentylenetetrazol-induced seizures at 40 mg/kg, ip after 4 hr; assay type: functional, organism-based; parameters: dose 40 mg/kg
Mus musculus [8] = assay: Anticonvulsant activity in Swiss albino Mus musculus (mouse) assessed as protection against subcutaneous pentylenetetrazol-induced seizures at 40 mg/kg, ip after 0.5 hr; assay type: functional, organism-based; parameters: dose 40 mg/kg
Mus musculus [9] = assay: Anticonvulsant activity in Swiss albino Mus musculus (mouse) assessed as protection against maximal electroshock-induced seizures at 10 mg/kg, ip after 2 hr; assay type: functional, organism-based; parameters: dose 10 mg/kg
Mus musculus [10] = assay: Anticonvulsant activity in Swiss albino Mus musculus (mouse) assessed as protection against maximal electroshock-induced seizures at 20 mg/kg, ip after 4 hr; assay type: functional, organism-based; parameters: dose 20 mg/kg
Mus musculus [11] = assay: Anticonvulsant activity in Swiss albino Mus musculus (mouse) assessed as protection against subcutaneous pentylenetetrazol-induced seizures at 10 mg/kg, ip after 4 hr; assay type: functional, organism-based; parameters: dose 10 mg/kg
Mus musculus [12] = assay: Anticonvulsant activity in Swiss albino Mus musculus (mouse) assessed as protection against maximal electroshock-induced seizures at 10 mg/kg, ip after 3 hr; assay type: functional, organism-based; parameters: dose 10 mg/kg
Mus musculus [13] = assay: Anticonvulsant activity in Swiss albino Mus musculus (mouse) assessed as protection against maximal electroshock-induced seizures at 40 mg/kg, ip after 4 hr; assay type: functional, organism-based; parameters: dose 40 mg/kg
Mus musculus [14] = assay: Anticonvulsant activity in Swiss albino Mus musculus (mouse) assessed as protection against subcutaneous pentylenetetrazol-induced seizures at 20 mg/kg, ip after 4 hr; assay type: functional, organism-based; parameters: dose 20 mg/kg
Mus musculus [15] = assay: Anticonvulsant activity in Swiss albino Mus musculus (mouse) assessed as protection against maximal electroshock-induced seizures at 40 mg/kg, ip after 2 hr; assay type: functional, organism-based; parameters: dose 40 mg/kg
Mus musculus [16] = assay: Anticonvulsant activity in Swiss albino Mus musculus (mouse) assessed as protection against maximal electroshock-induced seizures at 20 mg/kg, ip after 2 hr; assay type: functional, organism-based; parameters: dose 20 mg/kg
Mus musculus [17] = assay: Anticonvulsant activity in Swiss albino Mus musculus (mouse) assessed as protection against maximal electroshock-induced seizures at 10 mg/kg, ip after 1 hr; assay type: functional, organism-based; parameters: dose 10 mg/kg
Mus musculus [18] = assay: Anticonvulsant activity in Swiss albino Mus musculus (mouse) assessed as protection against subcutaneous pentylenetetrazol-induced seizures at 10 mg/kg, ip after 0.5 hr; assay type: functional, organism-based; parameters: dose 10 mg/kg
Mus musculus [19] = assay: Neurotoxicity in Swiss albino Mus musculus (mouse) assessed as minimal motor impairment at 30 mg/kg, ip after 4 hr; assay type: toxicity, organism-based; parameters: dose 30 mg/kg, route intraperitoneal; details: in vivo
Mus musculus [20] = assay: Anticonvulsant activity in Swiss albino Mus musculus (mouse) assessed as protection against maximal electroshock-induced seizures at 5 mg/kg, ip after 3 hr; assay type: functional, organism-based; parameters: dose 5 mg/kg
Mus musculus [21] = assay: Anticonvulsant activity in Swiss albino Mus musculus (mouse) assessed as protection against maximal electroshock-induced seizures at 5 mg/kg, ip after 1 hr; assay type: functional, organism-based; parameters: dose 5 mg/kg
Mus musculus [22] = assay: Anticonvulsant activity in Swiss albino Mus musculus (mouse) assessed as protection against subcutaneous pentylenetetrazol-induced seizures at 5 mg/kg, ip after 0.5 hr; assay type: functional, organism-based; parameters: dose 5 mg/kg

Row | SMILES | Activity (Mus musculus [1]) | Activity (Mus musculus [3]) | Activity (Mus musculus [4]) | Activity (Mus musculus [5]) | Activity (Mus musculus [8]) | Activity (Mus musculus [9]) | Activity (Mus musculus [10]) | Activity (Mus musculus [11]) | Activity (Mus musculus [13]) | other results
1 | CCCC(=O)NC1=CC(=O)C(=O)c2ccccc21 | Active | Active | inactive | Active | Active | – | – | – | – | Activity (Mus musculus [2]): Active; Activity (Mus musculus [6]): Active; Activity (Mus musculus [7]): Active
2 | O=C1C=C(NC(=O)c2cccnc2)c2ccccc2C1=O | – | – | inactive | – | – | inactive | inactive | – | – | –
3 | CC(=O)NC1=CC(=O)C(=O)c2ccccc21 | Active | – | inactive | Active | – | – | inactive | inactive | inactive | Activity (Mus musculus [12]): inactive; Activity (Mus musculus [14]): inactive
4 | CC(C)CC(=O)NC1=CC(=O)C(=O)c2ccccc21 | Active | Active | – | Active | Active | – | – | – | – | Activity (Mus musculus [12]): Active; Activity (Mus musculus [2]): Active; Activity (Mus musculus [6]): Active
5 | CC(=O)Nc1ccc(C(=O)NC2=CC(=O)C(=O)c3ccccc32)cc1 | Active | Active | – | Active | Active | Active | Active | – | Active | Activity (Mus musculus [15]): Active; Activity (Mus musculus [16]): Active; Activity (Mus musculus [14]): inactive; Activity (Mus musculus [7]): Active; Activity (Mus musculus [17]): Active
6 | CC(C)C(=O)NC1=CC(=O)C(=O)c2ccccc21 | Active | – | – | Active | Active | – | – | – | – | –
7 | CCCCCC(=O)NC1=CC(=O)C(=O)c2ccccc21 | Active | Active | – | – | Active | Active | – | – | Active | Activity (Mus musculus [16]): Active; Activity (Mus musculus [7]): Active; Activity (Mus musculus [17]): Active
8 | O=C1C=C(NC(=O)c2ccccc2)c2ccccc2C1=O | – | – | inactive | – | – | inactive | inactive | inactive | – | Activity (Mus musculus [18]): inactive
9 | CCC(=O)NC1=CC(=O)C(=O)c2ccccc21 | Active | – | inactive | – | – | – | inactive | inactive | – | Activity (Mus musculus [14]): inactive; Activity (Mus musculus [19]): Non-toxic
10 | O=C1NC(=O)C(c2ccccc2)(c2ccccc2)N1 | – | – | – | – | – | – | – | – | – | Activity (Mus musculus [20]): Active; Activity (Mus musculus [21]): Active; Activity (Mus musculus [22]): Active
11 | CC(=O)NCC(=O)NC1=CC(=O)C(=O)c2ccccc21 | – | – | – | – | – | – | – | inactive | inactive | Activity (Mus musculus [2]): Active; Activity (Mus musculus [6]): inactive; Activity (Mus musculus [17]): Active
